# Reference: patent US20260130369A1, “MARINE ALGICIDES” (Mote Marine Laboratory, Inc., priority 2022, published 2026)
# Columns and labels:
# [1] = system: K. brevis; assay: K. brevis mortality test of individual pure compounds against red tide cultures; format: cell-based, Karenia brevis; settings: 100% mortality of K. brevis within 2 hours after administration to a water sample containing K. brevis
# Protocol: Shown below in Table 1 are one saturated fatty acid (viz., palmitic acid) and nine exemplary algicidal unsaturated fatty acids, along with their omega nomenclature (viz., number of carbon atoms, number of double bonds, number of carbon atoms from the carboxylic acid end to the first carbon in a double bond) and the required dosage in ppm to obtain 100% mortality of K. brevis, within 2 hours after administration to a water sample containing K. brevis, according to embodiments of the present disclosure.
# The relative toxic effects shown in Table 1 were determined by obtaining individual pure compounds and testing them against red tide cultures of K. brevis. The compounds in Table 1 may also be tested as salts or soaps, and in water or non-methanolic solvents such as ethanol, acetone, acetic acid, dimethyl sulfoxide (DMSO) or other polar or non-polar solvent. […] In embodiments, the observed mortality may for example be at least 25%, at least 50%, at least 75%, at least 90% or as much as 100% in a desired time frame (e.g., within 2 hours, within 4 hours, within 8 hours, within 24 hours, or within 2, 3 or 4 days following application of the algicidal compound. In some embodiments, 100% death of red tide organisms may be achieved within 30 minutes of application within a target area. Additionally, extracts of macro algae common in environments suitable for K. brevis were tested to see how the mixture of fatty acids in those extracts would perform as algicidal agents. Use of a single compound instead of a mixture may be preferable under many common circumstances. However, Ulva latuca and Gracilaria tikvahiae contain mixtures of fatty acids and may be used as salts or soaps or in non-methanolic solutions to control K. brevis red tide blooms, according to embodiments of the present disclosure.
# To measure K. brevis mortality in a liquid, the concentration of K. brevis is measured before any algaecides are added. An algaecide is then added, and the concentration of live K. brevis measured at intervals (e.g. 1, 2, 5, 10, 20, and 30 minutes). This may also be performed in serial stages. For example, if the mortality rate of K. brevis at 30 minutes is 100%, the experiment may be repeated and the concentration of K. brevis measured at a lesser time point, such as after 20 minutes. If the mortality rate of K. brevis is still 100%, the experiment may be repeated again with the concentration measured at a lesser time point, such as after 10 minutes. The experiment may be repeated as many times as necessary to measure how long it takes for an algaecide to reach 100% mortality rate of K. brevis. Any suitable time periods may be used to measure the concentration of K. brevis.
# A variety of techniques may be used to measure K. brevis concentrations. In some embodiments, staining techniques are used. Staining may be performed with Lugol's Iodine Solution stain, which will become fixed to and stain the K. brevis so that it may be visualized. Other stains may be used, such as Invitrogen™ SYTOX™ Green from Thermo Fisher Scientific, which will penetrate compromised membranes (a feature characteristic of dead cells) of K. brevis and stain them. Fluorescein Diacetate may also be used, where live cells convert the fluorescein diacetate to […] which fluoresces and may be measured. Additionally, 4′,6-diamidino-2-phenylindole (DAPI) may also be used to stain nucleic acids that are inside or outside of cells. In addition to staining methods, the concentration of K. brevis may also be measured by other imaging techniques such as manual count, microscopy, fluorometry, flow cytometry, or other possible staining or counting techniques. FIG. 3 depicts one method of measuring K. brevis concentration using Invitrogen™ SYTOX™ Green.
# [2] = system: K. brevis cells; assay: Large-scale mesocosm experiment, efficacy of algicide treatment (red tide cell counts); format: cell-based, Karenia brevis; settings: 15 or 25 ppm particles; 1400 L tanks; 1 million cells/L; first (15 minute) sampling period
# Protocol: A large-scale mesocosm experiment was conducted to evaluate the efficacy of algicide treatment and marine organism toxicity. In each of four 1400 L exposure tanks containing K. brevis cells at a red tide concentration of 1 million cells/L, potassium ricinoleate particles were added to the tanks at levels of 15 or 25 ppm. At 15 minutes after addition of the algicidal agent to each tank, water samples were collected for red tide cell counts.
# Marine organism toxicity was evaluated by adding grass shrimp or Gulf killifish to the tanks along with the red tide cells and 15 or 25 ppm of the algicidal compounds. The red tide cells were quickly killed as before. After 18 and 24 hours, all shrimp remained alive. After 18 hours all fish were alive, but significant fish mortality was observed after 24 hours. The fish mortality was determined to be due to insufficient tank water circulation and oxygenation, and repeating the fish experiment with adequate circulation and oxygenation should eliminate or at least reduce the observed fish mortality.
SMILES,Dosage (PPM) for 100% Mortality in under 2 hrs [1],red tide cell mortality (no live cells under microscopic examination) [2]
CCCCC/C=C\C/C=C\C/C=C\C/C=C\CCCCCC(=O)O [Adrenic Acid],<50 PPM,–
CC/C=C\C/C=C\C/C=C\CCCCCCCC(=O)O [Alpha-linolenic Acid],3 PPM,–
CCCCC/C=C\C/C=C\C/C=C\C/C=C\CCCC(=O)O [Arachidonic Acid],1.5 PPM,–
CC/C=C\C/C=C\C/C=C\C/C=C\C/C=C\C/C=C\CCC(=O)O [Docosahexanoic Acid],<2.5 PPM,–
CC/C=C\C/C=C\C/C=C\C/C=C\C/C=C\CCCC(=O)O [Eicosapentaenoic Acid],<2 PPM,–
CC/C=C\C/C=C\C/C=C\C/C=C\CCC(=O)O [Hexadecatetraenoic Acid],>1 PPM,–
"CCCCCCCCCCCCCCCC(=O)O [Palmitic Acid, reference compound]",>10 PPM,–
CCCCCC/C=C\CCCCCCCC(=O)O [Palmitoleic Acid],3 PPM,–
CC/C=C\C/C=C\C/C=C\C/C=C\CCCCC(=O)O [Stearidonic Acid],>2 PPM,–
CCCCCC/C=C\CCCCCCCCCC(=O)O [Vacennic Acid],>6 PPM,–
CCCCCC[C@@H](O)C/C=C\CCCCCCCC(=O)[O-].[K+] [potassium ricinoleate],–,complete red tide cell mortality
